This note sets out measurements from PubChem BioAssay (NCI).

By TGI is commonly meant the concentration at which net growth stops.

What all share (experiment): DTP human tumour cell line panel, 48 h
The test system of assay [1] is 786-0 renal.
The subject of assay [2] is M19-MEL melanoma.
The test system of assay [3] is KM20L2 colon.
Assay [4] has as its system DLD-1 colon.
In assay [5] the test system is HOP-92 NSCLC.
The subject of assay [6] is OVCAR-8 ovarian.
Assay [7] deals with SF-268 CNS.
Assay [8] concerns CAKI-1 renal.
For assay [9], the system named is SK-MEL-2 melanoma.
Assay [10] deals with DMS 114 small cell lung.
Assay [11] has as its system M14 melanoma.
The subject of assay [12] is DMS 273 small cell lung.
For assay [13], the system named is LXFL 529 NSCLC.
Assay [14] concerns HS 578T breast.

Structures are written as SMILES.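 Briefly, cells in 96-well plates were exposed to five compound concentrations for 48 h, and endpoints were estimated by linear interpolation. TGI denotes the concentration required for complete inhibition of growth.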

As for `CCC1(N=[N+]=[N-])C(=O)c2ccccc2N(C)C1=O` (configuration not stated), the TGI in [1], in assay [2], in assay [3], in [4], in [5] and in assay [6] was greater than 100 µM throughout. Besides, the TGI in assay [7], in assay [8], in assay [9], in [10], in assay [11] and in assay [12] was greater than 100 µM throughout. In [13], this molecule returned a total growth inhibition concentration (TGI) greater than 100 µM.
For `Clc1ccc(C(c2ccccc2Cl)C(Cl)Cl)cc1` (configuration not stated), the TGI in assay [1] was found to be 36.7 µM; in [2] it was 39 µM; in assay [3], 33.8 µM; in assay [4], 38.6 µM; in [5] it was 32.1 µM; in assay [6], 40 µM. Moreover, the concentration for total growth inhibition (TGI) in assay [7] worked out at 37.6 µM; in assay [8], 31.8 µM; in [9] it was 35.8 µM; in [10], 36.7 µM; in assay [11], 37.1 µM; in assay [12], 36 µM. Also, the concentration for total growth inhibition (TGI) in assay [14] is 37.1 µM; in [13], 38.2 µM.
Consider `O=c1cc(CO)oc2c3c(cc(O)c12)OCC(COC1OC(CO)C(O)C(O)C1O)=CC3` (configuration not stated), for which the TGI in [1], in assay [2], in [3], in assay [4], in [5] and in assay [6] was greater than 100 µM throughout. Further, the TGI in assay [7], in assay [8], in assay [9], in assay [10], in [11] and in assay [12] was greater than 100 µM each time. In assay [13], this molecule showed a total growth inhibition concentration (TGI) greater than 100 µM.
For the molecule `CC(=O)OCC1OC(n2cc(F)c(=O)[nH]c2=O)C(NC(=O)OCc2ccccc2)C(OC(C)=O)C1OC(C)=O` (configuration not stated), the total growth inhibition concentration (TGI) in assay [2], in assay [3], in assay [4], in assay [5], in assay [6] and in assay [7] was greater than 100 µM each time. The TGI in [8], in [9], in assay [10] and in [12] was greater than 100 µM each time.
Consider `CCOc1ccc2[nH]c3c(C)c4ccncc4c(C)c3c2c1`, for which the TGI in assay [1] amounted to 2.2 µM; in [2], 3.1 µM; in assay [3] it was 2.56 µM; in [4], 1.96 µM; in assay [5] it was 3.07 µM; in [7], 2.71 µM. Moreover, the concentration for total growth inhibition (TGI) turned out to be 3.06 µM in assay [8]; 2.48 µM in [9]; 3.01 µM in assay [10]; 2.9 µM in assay [11]; 1.64 µM in [12]; 1.98 µM in [13].
Regarding `Brc1ccc(C[P+]2(c3ccccc3)CCCCC2)cc1`, the concentration for total growth inhibition (TGI) in assay [1] was greater than 100 µM; in [2] it was 76.4 µM; in [3], greater than 100 µM; in assay [4], greater than 100 µM; in assay [6], greater than 100 µM; in [9] it was greater than 100 µM. Moreover, the TGI in assay [10], in [11], in assay [12] and in assay [13] was greater than 100 µM throughout.
